Assay results taken from patent US5639726A, “Peptide mediated enhancement of thrombolysis methods and compositions” (The Regents of the University of Michigan, priority 1994, dated 1997).
Ends that are not written are not given here.

Molecular target: T1, PAI-1 (Homo sapiens, UniProt P05121)
T1 construct: made in house; host or cells: E. coli (vector pET3a)
Test: Kinetics of peptide annealing: residual PAI inhibitory activity assayed with β-trypsin and S-2222
Format: biochemical
Details: for k / kobs / t1/2 of PAI-1 inactivation: 25° C.

T1 sequence (P05121 24-402): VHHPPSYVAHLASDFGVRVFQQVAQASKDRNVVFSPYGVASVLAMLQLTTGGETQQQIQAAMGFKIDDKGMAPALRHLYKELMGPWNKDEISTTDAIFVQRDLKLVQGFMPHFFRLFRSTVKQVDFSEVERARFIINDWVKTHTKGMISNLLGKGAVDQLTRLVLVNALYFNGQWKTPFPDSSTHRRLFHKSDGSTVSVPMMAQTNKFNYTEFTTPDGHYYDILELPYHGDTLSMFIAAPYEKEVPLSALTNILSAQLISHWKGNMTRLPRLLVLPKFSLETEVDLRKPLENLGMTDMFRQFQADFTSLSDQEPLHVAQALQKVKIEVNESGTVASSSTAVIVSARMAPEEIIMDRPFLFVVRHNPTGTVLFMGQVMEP

half-life of PAI inactivation (0.9 μM PAI, 64 μM peptide): 4.3 min | k (peptide 1.5 mM): .022 M⁻¹ s⁻¹ | kobs (peptide 1.5 mM): .12 h⁻¹ | t1/2 of PAI-1 inactivation (peptide 1.5 mM): 5.8 h | k (peptide 3.5 mM): .020 M⁻¹ s⁻¹ | kobs (peptide 3.5 mM): .25 h⁻¹ | t1/2 of PAI-1 inactivation (peptide 3.5 mM): 2.7 h | kobs (peptide 5.5 mM): .28 h⁻¹ | t1/2 of PAI-1 inactivation (peptide 5.5 mM): 2.5 h | k (peptide 7 mM): .012 M⁻¹ s⁻¹ | kobs (peptide 7 mM): .31 h⁻¹ | t1/2 of PAI-1 inactivation (peptide 7 mM): 2.2 h | k (peptide 9 mM): .017 M⁻¹ s⁻¹ | kobs (peptide 9 mM): .54 h⁻¹ | t1/2 of PAI-1 inactivation (peptide 9 mM): 1.3 h
Substance: Ac-TVASSSTAVIVSAR [SEQ ID NO: 1, Thr-Val-Ala-Ser-Ser-Ser-Thr-Ala-Val-Ile-Val-Ser-Ala-Arg]
